Test results taken from ChEMBL document CHEMBL4609980, “Identification of antimalarial leads with dual falcipain-2 and falcipain-3 inhibitory activity” (Bioorg Med Chem, 2020).
The source made the active and inactive calls. The rule behind the calls is not given here.

Assays:
[1] = biological target: T1, Falcipain 2 (Plasmodium falciparum) (UniProt Q9N6S8); assay: Inhibition of recombinant Plasmodium falciparum falcipain-2 expressed in bacterial expression system using ZFR-AMC as substrate at 100 uM measured for 30 mins by fluorimetric assay relative to control
T1 sequence (whole entry): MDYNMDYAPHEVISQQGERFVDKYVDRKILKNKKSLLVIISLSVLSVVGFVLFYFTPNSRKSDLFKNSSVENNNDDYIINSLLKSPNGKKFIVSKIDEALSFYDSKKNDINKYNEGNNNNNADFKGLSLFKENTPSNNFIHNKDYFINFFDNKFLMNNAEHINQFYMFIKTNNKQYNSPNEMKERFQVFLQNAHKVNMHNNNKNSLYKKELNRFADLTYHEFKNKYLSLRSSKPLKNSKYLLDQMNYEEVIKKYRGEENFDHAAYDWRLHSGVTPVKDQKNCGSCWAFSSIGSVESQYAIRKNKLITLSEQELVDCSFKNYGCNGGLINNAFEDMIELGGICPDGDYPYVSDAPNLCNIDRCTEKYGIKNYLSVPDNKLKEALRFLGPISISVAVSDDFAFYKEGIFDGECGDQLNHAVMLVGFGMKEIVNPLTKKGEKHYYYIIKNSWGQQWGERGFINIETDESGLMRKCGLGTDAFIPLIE

[2] = biological target: T2, Cysteine protease falcipain-3 (Plasmodium falciparum) (UniProt Q9NAW4); assay: Inhibition of recombinant Plasmodium falciparum falcipain-3 expressed in bacterial expression system using ZFR-AMC as substrate at 100 uM measured for 30 mins by fluorimetric assay relative to control
T2 sequence (whole entry): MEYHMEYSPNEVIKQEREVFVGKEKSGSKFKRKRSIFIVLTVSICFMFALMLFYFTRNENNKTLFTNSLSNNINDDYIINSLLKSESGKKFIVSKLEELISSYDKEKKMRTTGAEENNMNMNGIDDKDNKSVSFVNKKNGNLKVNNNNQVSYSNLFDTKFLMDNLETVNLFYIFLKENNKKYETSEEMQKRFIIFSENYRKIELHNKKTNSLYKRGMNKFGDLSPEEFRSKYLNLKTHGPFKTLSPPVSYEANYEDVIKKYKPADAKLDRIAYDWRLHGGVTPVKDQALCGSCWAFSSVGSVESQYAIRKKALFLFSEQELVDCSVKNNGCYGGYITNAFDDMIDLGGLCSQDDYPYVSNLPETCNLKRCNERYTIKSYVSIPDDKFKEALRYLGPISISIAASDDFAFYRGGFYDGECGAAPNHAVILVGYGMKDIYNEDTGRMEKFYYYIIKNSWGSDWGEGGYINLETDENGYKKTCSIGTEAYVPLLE

Plasmodium falciparum [3] = assay: Antimalarial activity against Plasmodium falciparum 3D7 infected in human erythrocytes assessed as morphological abnormalities at 10 uM incubated for 54 hrs by giemsa staining based light microscopy; assay type: functional, organism-based
Plasmodium falciparum [4] = assay: Antimalarial activity against Plasmodium falciparum 3D7 infected in human erythrocytes assessed as food-vacoules abnormalities at 10 uM incubated for 54 hrs by giemsa staining based light microscopy; assay type: functional, organism-based
Plasmodium falciparum [5] = assay: Antimalarial activity against Plasmodium falciparum 3D7 infected in human erythrocytes assessed as increase in arrest of ring stage at 100 uM incubated for 46 hrs by giemsa staining based light microscopy; assay type: functional, organism-based
Plasmodium falciparum [6] = assay: Antimalarial activity against Plasmodium falciparum 3D7 infected in human erythrocytes assessed as increase in arrest of ring stage at 100 uM measured after 46 hrs by giemsa staining based light microscopy; assay type: functional, organism-based
Falcipain 2 = biological target: T3, Falcipain 2 (Plasmodium falciparum, UniProt Q9N6S8); assay: Inhibition of recombinant Plasmodium falciparum falcipain-2 expressed in bacterial expression system using ZFR-AMC as substrate measured for 30 mins by fluorimetric assay
T3 sequence (Q9N6S8 whole entry): T1 sequence (whole entry)

[7] = biological target: T4, Cysteine protease falcipain-3 (Plasmodium falciparum, UniProt Q9NAW4); assay: Inhibition of recombinant Plasmodium falciparum falcipain-3 expressed in bacterial expression system using ZFR-AMC as substrate measured for 30 mins by fluorimetric assay
T4 sequence (Q9NAW4 whole entry): T2 sequence (whole entry)

Plasmodium falciparum [8] = assay: Antimalarial activity against Plasmodium falciparum 3D7 infected in human erythrocytes assessed as increase in arrest of ring stage at 100 uM incubated for 54 hrs by giemsa staining based light microscopy relative to control; assay type: functional

Compound	inhibition [1]	inhibition [2]	other results
O=C(CN1CCC(C2N=c3ccccc3=N2)CC1)Nc1cccc2ccccc12	47%	49%	
CC(C)C[C@H](NC(=O)[C@H]1O[C@@H]1C(=O)O)C(=O)NCCCCN=C(N)N			Activity (Plasmodium falciparum [3]): Active; Activity (Plasmodium falciparum [4]): Active
O=C(CN1CCN(C2=NCCC=N2)CC1)Nc1cccc2ccccc12	19%	21%	
CN1CCCc2cc(CCNC(=O)C(=O)Nc3ccc4c(c3)OCO4)ccc21	53%	61%	Activity (Plasmodium falciparum [5]): Active; Activity (Plasmodium falciparum [6]): inactive; IC50 (Falcipain 2): 14.7 µM; IC50 [7]: 9.98 µM
O=C(NCCCNC(=O)c1cc2ccccc2[nH]1)c1ccc(-c2ccccc2)cc1	51%	62%	Activity (Plasmodium falciparum [8]): 100%; IC50 (Falcipain 2): 12.2 µM; IC50 [7]: 8.56 µM
CCc1ccc(NC(=O)CN2CCN(c3nc4ccccc4s3)CC2)cc1	43%	26%	
O=C(CNC(=O)N1CCN(Cc2ccccc2)CC1)NC1=CC2=CC=N[C@@H]2C=C1	39%	15%	
O=C1C[C@H](C(=O)Nc2ccccc2)NC(N2CCN(Cc3ccccc3)CC2)=N1	44%	17%	
O=C1CCc2cc(CNC(=O)Cn3ncc4ccccc4c3=O)ccc2C1	42%	41%	
O=C(NCCCn1nc2n(c1=O)CCCC2)c1cc2c(cc1O)CCCC2	42%	15%	

The next lines start with results.

inhibition [1]	inhibition [2]	Compound	other results
41%	9%	Cc1ccc(NC(=O)CN2CCC[C@H](c3nc4ccccc4o3)C2)cc1C	
25%	25%	O=C1CN(CC(=O)NC2CCOc3ccccc32)CCN1 (stereo unspecified)	
19%	6%	Cc1ccc(NCC(=O)NC2CC2)cc1S(=O)(=O)C1CCCCC1	
43%	25%	Cc1cccc(O)c1OC1CCN(CC(=O)Nc2ccc(CN3CCOCC3)cc2)CC1	
49%	39%	O=C(CCC1=CC(=O)C2C(=N1)SC1=C2CCCC1)NC1CCCCNC1=O (stereo unspecified)	
46%	50%	O=C(Nc1ccc([C@@H]2C=c3ccccc3=N2)cc1)[C@@H]1CCCN1C1CCOCC1	
22%	69%	O=C(CN1CCC(c2ccccc2)C1)NC1CCC2(CC1)OCCO2 (stereo unspecified)	
